Measured values: the NIST ThermoML archive (doi:10.1016/j.jct.2005.04.010)
± gives the expanded uncertainty stated by the source.

How the values were obtained:
[1] = 101.33 kPa, Liquid
[2] = wn = mass fraction of the nth substance listed; conditions: 101 kPa, Liquid, w1 = 0.5

CCCC[N+]1(C)CCCC1.O=S(=O)([N-]S(=O)(=O)C(F)(F)F)C(F)(F)F
[1]
Conditions	mass density [kg/m3]
298.15 K	1394 ± 5
303.15 K	1390 ± 5
308.15 K	1388 ± 5
313.15 K	1386 ± 5
318.15 K	1383 ± 5
323.15 K	1381 ± 5
328.15 K	1379 ± 5
333.15 K	1377 ± 5
338.15 K	1373 ± 5
343.15 K	1370 ± 5
348.15 K	1366 ± 5

CCn1cc[n+](C)c1.O=S(=O)([N-]S(=O)(=O)C(F)(F)F)C(F)(F)F + CCCC[n+]1ccn(C)c1.O=S(=O)([N-]S(=O)(=O)C(F)(F)F)C(F)(F)F
[2]
Conditions	mass density [kg/m3]
293.15 K	1483 ± 6
298.15 K	1479 ± 6
303.15 K	1474 ± 6
308.15 K	1469 ± 6
313.15 K	1464 ± 6
318.15 K	1459 ± 6
323.15 K	1454 ± 6
328.15 K	1449 ± 6
333.15 K	1445 ± 6
338.15 K	1440 ± 6
343.15 K	1435 ± 6
348.15 K	1430 ± 6
353.15 K	1425 ± 6
358.15 K	1421 ± 6
